Experimental data taken from paper PMC8800018, “Discovery of novel selective PI3Kγ inhibitors through combining machine learning-based virtual screening with multiple protein structures and bio-evaluation” (Journal of Advanced Research, 2021).
pIC50: −log10 of the molar value. Read-outs that look alike come from different tables or passages of the source.

Legend:
[1] = tested on: RPMI-8226 cells; test: Annexin V-FITC/PI flow cytometry apoptosis assay; type: cell-based, human; details: RPMI-8226, 10 μM, 24 h
Protocol: (§1) After being treated with JN-KI3 for 24 h, K562 and RPMI-8226 were stained with Annexin V-FITC/PI detection kit (Beyotime) and the apoptosis of the cells were detected using a flow cytometer (FACSCalibur, BD) following the instructions.

[2] = tested on: K562 cells; test: Annexin V-FITC/PI flow cytometry apoptosis assay; type: cell-based, human; details: 24 h
Protocol: as §1

[3] = molecular target: PI3Kδ (Homo sapiens, UniProt O00329); test: ADP-Glo cell-free PI3K kinase activity assay
Protocol: (§6) The PI3K inhibitory activities of these pro-hits were all determined by ADP-Glo assay (Promega) [39]. […] 2.5 μL ATP/substrate mixture was added into the wells to initiate kinase reactions and incubated at room temperature for 1 h. Then, the reactions were stopped by addition of 5 μL ADP-Glo reagent and incubation for 120 min at room temperature. Before reading the luminescence signals of each well, 10 μL kinase detection buffer was added and incubated for 30 min at room temperature.

[4] = molecular target: PI3Kα (Homo sapiens, UniProt P42336); test: ADP-Glo cell-free PI3K kinase activity assay
Protocol: as §6

[5] = molecular target: PI3Kβ (Homo sapiens, UniProt P42338); test: ADP-Glo cell-free PI3K kinase activity assay
Protocol: as §6

[6] = tested on: hematologic tumor cell lines (HL-60, Jurkat, CCRF-CEM, K562, OPM2, OCI-My5, LP-1, RPMI-8226, U937); test: MTT cell proliferation assay, hematologic tumor cell lines, gradient of concentrations; type: cell-based, human; details: Fig. 3D
Text: (§2) The human cancer lines, MDA-MB-231, Patu8988, HepG2, A2780, LOVO, H1299, A549, HCT-8, SW480, 3AO, and MGC-803 were saved by the lab of Dr. Jian Jin, Jiangnan University. MCF-7 was purchased from the American Type Culture Collection (ATCC). Human malignant blood tumor cells, HL-60, U266, OPM2, OCI-My5, RPMI-8226, NCI-H929, Jurkat, LP-1, CCRF-CEM, K562, and U937, were provided by Dr. Xinliang Mao, Soochow University. MDA-MB-231, Patu8988, HepG2, A2780, LOVO, H1299, A549, HCT-8, SW480, 3AO, MGC-803, and MCF-7 were cultured in Dulbecco’s Modified Eagle Medium (DMEM, Gibco); U266, RPMI-8226, OPM2, OCI-My5, NCI-H929 and LP-1 were cultured in Iscove’s Modified Dulbecco’s Medium (IMDM. Gibco). The rest of cell lines were cultured in RPMI-1640 medium (Gibco). All mediums were supplemented with 10% fetal bovine serum (FBS, Gibco), 100 μg/mL penicillin and streptomycin, and all cells were maintained in a cell incubator with 5% CO2 at 37℃.
All cells were incubated in 96-well culture plates with 100 μL medium in each well. […] The viability of the cancer cells was evaluated by Thiazolyl Blue (MTT) assay. […] After incubating the plate overnight, the absorbance of each well was measured at 550 nm by a microplate reader. […]

[7] = tested on: RPMI-8226 cells; test: MTT cell proliferation assay; type: cell-based, human; details: 72 h, Fig. 3C, compared with IPI-145
Text: as §2
(§3) All cells were incubated in 96-well culture plates with 100 μL medium in each well. The concentration of solid cells (MDA-MB-231, MCF-7, Patu8988, HepG2, A2780, 3AO, LOVO, HCT-8, SW480, A549, H1299, and MGC-803) was 3,000/well and the concentration of suspension cells (HL-60, U266, OPM2, OCI-My5, RPMI-8226, NCI-H929, Jurkat, LP-1, CCRF-CEM, K562, and U937) was 7,500/well. […] The viability of the cancer cells was evaluated by Thiazolyl Blue (MTT) assay. 10 μL of 5 mg/mL MTT was added to each well and the plate was incubated at 37℃ for 4 h. Then, 100 μL MTT buffer was added to each well. After incubating the plate overnight, the absorbance of each well was measured at 550 nm by a microplate reader. All data were normalized to control groups (5 μL DMSO) and converted into the percent of living cells. All results were represented as the mean and standard deviation (SD) of the three independent measurements.

[8] = tested on: K562 cells; test: MTT cell proliferation assay; type: cell-based, human
Text: as §2, §3

[9] = tested on: U937 cells; test: MTT cell proliferation assay; type: cell-based, human; details: 72 h, Fig. 3C, compared with IPI-145
Text: as §2, §3

[10] = tested on: AKT phosphorylation (Thr308, Ser473) in RPMI-8226 cells; test: Western Blot of PI3K/AKT signaling; type: cell-based, human
Protocol: (§4) K562 and RPMI-8226 cells were cultured in 6-well plates with 1 × 10^6 cells per well and then treated with various concentrations of JN-KI3: 0, 2.5, 5, 10, and 20 μM. After 24 h, the cells of each well were collected and washed by PBS 3 times. The sedimentary cells were then incubated in an ice bath with 80 μL RIPA lysis buffer (Beyotime) for 20 min and then centrifuged at 12,000 rpm for 20 min. The supernatant was collected and its total concentration of protein was quantified using the BCA protein assay kit (Biosharp). Loading buffer (5 ×) was added to all protein samples prepared for Western Blot assays and boiled at 100℃ for 5 min.
(§5) The inhibitory situation of PI3K/AKT (Protein kinase B) signaling pathway was then determined by Western Blot assays. The SDS-polyacrylamide gel electrophoresis (PAGE) was used to separate the proteins. All protein samples and Protein Marker (Proteintech) were loaded onto an acrylamide gel and ran for 30 min at 80 V within the staking gel and for 1 h at 100 V with the separating gel. Then, the protein was electro-transferred onto an NC membrane at 100 V for 1 h. After that, the membrane was blocked in 5% skim milk diluted in TBST (1 ×) for 2 h and then the membrane was incubated with relevant primary antibody overnight at 4℃: Phospho-AKT (Thr308) (1 : 1000, cat# 13038 T; Cell Signaling Technology), Phospho-AKT (Ser473) (1: 1000, cat# 4060 T; Cell Signaling Technology), AKT (pan) (1: 1000, cat# 4691 T; Cell Signaling Technology), caspase-3 (1: 1000, cat# sc-56053; Santa Cruz Biotechnology), PARP (1: 1000, cat# 9542S; Cell Signaling Technology). GAPDH (1: 5000, cat#60004–1-Ig; Santa Cruz Biotechnology), After 10-min washing in TBST (1 ×) for 3 times, the membrane was incubated with relevant secondary antibody at room temperature on a shaker for 1 h. And the membrane was washed for 4 times in TBST again before being imaged.

[11] = tested on: AKT phosphorylation (Thr308, Ser473) in K562 cells; test: Western Blot of PI3K/AKT signaling; type: cell-based, human
Protocol: as §4, §5

[12] = tested on: PARP and caspase-3 cleavage in RPMI-8226 cells; test: Western Blot of apoptosis biomarkers; type: cell-based, human
Protocol: as §4, §5

[13] = tested on: PARP and caspase-3 cleavage in K562 cells; test: Western Blot of apoptosis biomarkers; type: cell-based, human
Protocol: as §4, §5

[14] = molecular target: PI3Kγ (Homo sapiens, UniProt P48736); test: ADP-Glo cell-free PI3K kinase activity assay; details: compounds 10 μM, initial screening, Fig. 3A
Chain of PI3Kγ (P48736 whole entry): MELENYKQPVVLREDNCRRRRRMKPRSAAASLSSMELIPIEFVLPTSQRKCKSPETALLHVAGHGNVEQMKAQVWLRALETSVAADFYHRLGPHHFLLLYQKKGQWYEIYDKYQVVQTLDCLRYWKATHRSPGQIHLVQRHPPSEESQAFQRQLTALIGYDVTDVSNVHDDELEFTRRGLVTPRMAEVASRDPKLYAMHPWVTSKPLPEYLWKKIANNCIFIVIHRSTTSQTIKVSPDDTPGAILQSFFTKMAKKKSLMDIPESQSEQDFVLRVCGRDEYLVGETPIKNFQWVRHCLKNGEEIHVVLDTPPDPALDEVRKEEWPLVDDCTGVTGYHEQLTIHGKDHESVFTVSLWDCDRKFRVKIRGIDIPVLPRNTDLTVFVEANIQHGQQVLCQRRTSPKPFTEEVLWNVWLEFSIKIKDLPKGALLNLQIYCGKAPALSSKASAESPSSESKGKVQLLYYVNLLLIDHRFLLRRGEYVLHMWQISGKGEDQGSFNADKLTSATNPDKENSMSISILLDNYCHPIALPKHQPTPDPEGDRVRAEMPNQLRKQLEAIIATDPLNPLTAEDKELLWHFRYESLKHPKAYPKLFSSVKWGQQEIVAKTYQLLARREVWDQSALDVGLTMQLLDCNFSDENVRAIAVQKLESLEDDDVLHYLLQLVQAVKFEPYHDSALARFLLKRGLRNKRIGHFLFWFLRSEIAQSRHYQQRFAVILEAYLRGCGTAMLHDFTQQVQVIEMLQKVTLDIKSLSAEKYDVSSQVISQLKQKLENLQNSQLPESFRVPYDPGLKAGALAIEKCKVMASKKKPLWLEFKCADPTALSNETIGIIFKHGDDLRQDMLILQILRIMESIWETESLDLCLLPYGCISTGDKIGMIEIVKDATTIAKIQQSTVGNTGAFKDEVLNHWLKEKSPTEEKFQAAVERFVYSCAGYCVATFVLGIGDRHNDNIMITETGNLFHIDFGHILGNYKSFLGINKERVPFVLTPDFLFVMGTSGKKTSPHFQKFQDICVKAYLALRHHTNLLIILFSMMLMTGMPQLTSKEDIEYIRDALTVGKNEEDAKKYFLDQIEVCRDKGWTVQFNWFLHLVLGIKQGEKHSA
Protocol: as §6

Chain of PI3Kδ (O00329 whole entry): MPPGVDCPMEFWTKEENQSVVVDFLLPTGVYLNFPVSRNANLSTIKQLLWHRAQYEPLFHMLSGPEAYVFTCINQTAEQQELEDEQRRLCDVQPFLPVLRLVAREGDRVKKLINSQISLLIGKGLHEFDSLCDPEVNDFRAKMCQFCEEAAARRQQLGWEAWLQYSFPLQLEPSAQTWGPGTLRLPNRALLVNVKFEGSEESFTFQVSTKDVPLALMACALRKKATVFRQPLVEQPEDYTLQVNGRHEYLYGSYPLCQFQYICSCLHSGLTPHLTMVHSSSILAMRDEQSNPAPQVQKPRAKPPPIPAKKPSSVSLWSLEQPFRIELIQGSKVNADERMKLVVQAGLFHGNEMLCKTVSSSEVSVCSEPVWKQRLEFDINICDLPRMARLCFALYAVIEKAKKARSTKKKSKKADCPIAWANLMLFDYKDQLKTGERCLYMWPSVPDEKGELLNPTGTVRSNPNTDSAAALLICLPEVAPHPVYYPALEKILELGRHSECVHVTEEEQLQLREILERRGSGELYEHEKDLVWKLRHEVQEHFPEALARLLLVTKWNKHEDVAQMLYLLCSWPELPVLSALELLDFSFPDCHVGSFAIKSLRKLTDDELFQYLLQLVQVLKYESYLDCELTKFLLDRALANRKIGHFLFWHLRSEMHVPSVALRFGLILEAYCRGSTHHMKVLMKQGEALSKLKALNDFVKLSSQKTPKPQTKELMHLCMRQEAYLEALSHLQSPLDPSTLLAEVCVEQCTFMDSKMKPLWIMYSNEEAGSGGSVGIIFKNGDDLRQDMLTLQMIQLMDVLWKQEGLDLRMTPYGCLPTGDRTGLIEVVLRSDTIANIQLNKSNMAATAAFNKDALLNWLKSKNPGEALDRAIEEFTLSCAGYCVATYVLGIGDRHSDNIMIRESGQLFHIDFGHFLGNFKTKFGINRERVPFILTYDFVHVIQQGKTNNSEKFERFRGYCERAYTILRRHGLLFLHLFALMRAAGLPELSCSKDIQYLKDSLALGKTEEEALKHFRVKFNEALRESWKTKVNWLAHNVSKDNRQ
Chain of PI3Kδ (P27986 whole entry partner): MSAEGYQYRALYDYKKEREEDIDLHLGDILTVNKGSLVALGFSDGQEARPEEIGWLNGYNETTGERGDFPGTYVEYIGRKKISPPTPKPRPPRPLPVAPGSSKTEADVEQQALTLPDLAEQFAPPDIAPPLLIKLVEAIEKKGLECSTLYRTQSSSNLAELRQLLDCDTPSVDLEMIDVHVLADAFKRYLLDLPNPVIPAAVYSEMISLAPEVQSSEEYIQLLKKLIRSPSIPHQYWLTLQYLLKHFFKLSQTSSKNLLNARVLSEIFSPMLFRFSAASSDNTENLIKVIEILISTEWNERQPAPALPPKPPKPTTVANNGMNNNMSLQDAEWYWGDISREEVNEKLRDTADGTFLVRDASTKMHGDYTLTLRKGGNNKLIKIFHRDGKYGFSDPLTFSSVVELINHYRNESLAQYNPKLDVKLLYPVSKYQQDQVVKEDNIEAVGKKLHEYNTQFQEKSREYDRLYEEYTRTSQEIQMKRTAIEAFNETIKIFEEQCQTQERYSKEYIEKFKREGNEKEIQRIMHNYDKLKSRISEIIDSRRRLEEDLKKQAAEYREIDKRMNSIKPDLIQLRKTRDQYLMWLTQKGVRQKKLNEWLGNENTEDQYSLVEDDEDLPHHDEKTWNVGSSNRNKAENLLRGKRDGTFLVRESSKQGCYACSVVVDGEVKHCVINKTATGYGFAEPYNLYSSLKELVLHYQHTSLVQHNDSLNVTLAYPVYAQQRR
Chain of PI3Kα (P42336 whole entry): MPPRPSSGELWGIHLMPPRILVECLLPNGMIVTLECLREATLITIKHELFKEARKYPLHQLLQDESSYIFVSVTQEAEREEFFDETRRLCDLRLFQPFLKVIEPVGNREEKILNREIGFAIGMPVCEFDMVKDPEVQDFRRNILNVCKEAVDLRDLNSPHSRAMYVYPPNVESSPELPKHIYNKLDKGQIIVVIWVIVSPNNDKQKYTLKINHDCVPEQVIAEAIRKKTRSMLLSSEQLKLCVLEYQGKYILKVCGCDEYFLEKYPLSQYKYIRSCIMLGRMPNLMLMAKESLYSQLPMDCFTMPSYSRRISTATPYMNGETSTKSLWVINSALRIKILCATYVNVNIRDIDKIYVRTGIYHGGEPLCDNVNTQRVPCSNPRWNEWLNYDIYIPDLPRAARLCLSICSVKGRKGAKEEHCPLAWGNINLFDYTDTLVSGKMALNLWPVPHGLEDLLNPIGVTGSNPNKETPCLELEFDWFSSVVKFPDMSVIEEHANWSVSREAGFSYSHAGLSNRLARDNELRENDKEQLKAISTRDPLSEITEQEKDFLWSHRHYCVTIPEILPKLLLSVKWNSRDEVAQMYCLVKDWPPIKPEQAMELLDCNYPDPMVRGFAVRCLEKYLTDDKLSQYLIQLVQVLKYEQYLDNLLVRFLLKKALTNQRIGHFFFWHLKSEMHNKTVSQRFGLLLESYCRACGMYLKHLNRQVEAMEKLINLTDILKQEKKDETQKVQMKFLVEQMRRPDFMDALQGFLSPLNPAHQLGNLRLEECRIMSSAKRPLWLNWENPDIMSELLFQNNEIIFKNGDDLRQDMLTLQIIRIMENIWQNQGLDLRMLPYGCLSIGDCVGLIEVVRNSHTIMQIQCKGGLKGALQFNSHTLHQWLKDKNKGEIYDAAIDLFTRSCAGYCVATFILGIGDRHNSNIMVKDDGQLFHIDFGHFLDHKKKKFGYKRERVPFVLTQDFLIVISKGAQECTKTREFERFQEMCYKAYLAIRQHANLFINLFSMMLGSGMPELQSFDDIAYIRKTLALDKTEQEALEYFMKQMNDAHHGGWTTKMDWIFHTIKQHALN
Chain of PI3Kα (P27986 whole entry partner): as the sequence (P27986 whole entry partner) above
Chain of PI3Kβ (P42338 whole entry): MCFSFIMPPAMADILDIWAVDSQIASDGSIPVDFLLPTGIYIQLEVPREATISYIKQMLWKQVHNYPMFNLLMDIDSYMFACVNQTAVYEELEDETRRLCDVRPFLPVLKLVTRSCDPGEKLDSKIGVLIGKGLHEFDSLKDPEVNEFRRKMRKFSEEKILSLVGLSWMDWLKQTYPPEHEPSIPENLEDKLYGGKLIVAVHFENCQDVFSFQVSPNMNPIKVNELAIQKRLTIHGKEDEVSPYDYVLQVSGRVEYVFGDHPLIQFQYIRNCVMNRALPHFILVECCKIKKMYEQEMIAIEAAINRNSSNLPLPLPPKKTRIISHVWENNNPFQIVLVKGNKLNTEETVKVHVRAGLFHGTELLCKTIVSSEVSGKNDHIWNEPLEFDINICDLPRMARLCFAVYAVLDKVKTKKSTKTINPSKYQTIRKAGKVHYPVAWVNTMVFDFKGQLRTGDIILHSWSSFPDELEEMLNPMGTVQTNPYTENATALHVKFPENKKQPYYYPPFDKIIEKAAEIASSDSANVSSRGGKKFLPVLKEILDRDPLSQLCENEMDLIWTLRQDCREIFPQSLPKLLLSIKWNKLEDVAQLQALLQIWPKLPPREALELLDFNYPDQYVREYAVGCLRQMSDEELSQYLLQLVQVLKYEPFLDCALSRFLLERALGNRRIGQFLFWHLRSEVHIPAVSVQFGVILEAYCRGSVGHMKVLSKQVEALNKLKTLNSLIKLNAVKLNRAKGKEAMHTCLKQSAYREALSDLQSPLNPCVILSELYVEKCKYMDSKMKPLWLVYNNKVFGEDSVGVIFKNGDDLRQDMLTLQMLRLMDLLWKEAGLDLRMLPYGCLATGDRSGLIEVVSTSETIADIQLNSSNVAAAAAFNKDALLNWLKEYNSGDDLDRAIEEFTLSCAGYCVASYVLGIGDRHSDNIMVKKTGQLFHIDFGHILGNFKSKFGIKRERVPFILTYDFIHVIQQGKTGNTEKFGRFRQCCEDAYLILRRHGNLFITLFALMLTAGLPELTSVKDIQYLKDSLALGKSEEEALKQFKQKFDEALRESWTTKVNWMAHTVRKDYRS
Chain of PI3Kβ (P27986 whole entry partner): as the sequence (P27986 whole entry partner) above

## CC(=O)c1c(C)n(-c2ccc(C)cc2)c2ccc(OCC(O)CNCc3ccc(Cl)cc3)cc12 (centres unmarked) [JN-KI3]
[1]
  cells occurring apoptosis: about 20.43%
[2]; K562, 2.5 μM
  cells occurring apoptosis: 41.2%
[2]; K562, 5 μM
  cells occurring apoptosis: 47.5%
[2]; K562, 10 μM
  cells occurring apoptosis: 65.7%
[3]; read-out: Cell-free inhibitory IC50 PI3Kδ, ATP 25 μM, average of triple tests
  pIC50: < 4.70
[3]; read-out: IC50 PI3Kδ, Table 4
  pIC50: < 4.70
[4]; read-out: Cell-free inhibitory IC50 PI3Kα, ATP 25 μM, average of triple tests
  pIC50: < 4.70
[4]; read-out: IC50 PI3Kα, Table 4
  pIC50: < 4.70
[5]; read-out: Cell-free inhibitory IC50 PI3Kβ, ATP 25 μM, average of triple tests
  pIC50: < 4.70
[5]; read-out: IC50 PI3Kβ, Table 4
  pIC50: < 4.70
[6]
  proliferation of hematologic tumor cell lines: decreased in a concentration-dependent manner
[7]
  anti-proliferative activity, RPMI-8226: stronger than IPI-145
[8]; 72 h, MTT, Fig. 3B/3C
  anti-proliferative activity, K562: stronger than IPI-145
[8]; gradient of concentrations, low concentration, Fig. 3D
  sensitivity of K562 proliferation: significant sensitivity
[9]
  anti-proliferative activity, U937: stronger than IPI-145
[10]; RPMI-8226, 20 μM, 0 to 24 h
  phosphorylation level of AKT at both sites, time course: significantly inhibited
  t-AKT, time course: not markedly affected
[10]; RPMI-8226, increasing concentration (2.5-20 μM), 24 h, inhibition even at 2.5 μM
  AKT phosphorylation at Thr308 and Ser473: markedly decreased
[10]; RPMI-8226, increasing concentration, 24 h
  expression of total AKT (t-AKT): not affected
[11]; K562, 20 μM, 0 to 24 h
  phosphorylation level of AKT at both sites, time course: significantly inhibited
  t-AKT, time course: not markedly affected
[11]; K562, increasing concentration (2.5-20 μM), 24 h, inhibition even at 2.5 μM
  AKT phosphorylation at Thr308 and Ser473: markedly decreased
[11]; K562, increasing concentration, 24 h
  expression of total AKT (t-AKT): not affected
[12]; RPMI-8226, 20 μM, after 6 h
  cleavage level of Caspase-3 and PARP, time course: significantly increased
[12]; RPMI-8226, increasing concentrations, 24 h
  cleavage levels of PARP and caspase-3: obviously increased
[13]; K562, 20 μM, after 6 h
  cleavage level of Caspase-3 and PARP, time course: significantly increased
[13]; K562, increasing concentrations, 24 h
  cleavage levels of PARP and caspase-3: obviously increased

## C[C@H](Nc1ncnc2nc[nH]c12)c1cc2cccc(Cl)c2c(=O)n1-c1ccccc1 [IPI-145]
[14]
  PI3Kγ inhibitory percent: strongest inhibitory activity

## O=c1cc(N2CCOCC2)oc2c(-c3ccccc3)cccc12 [LY294002, reference compound]
[3]
  pIC50: 6.11
